Experiment: Pharmacokinetics and lung tissue distribution in mice, LC-MS/MS
Assay type: in vivo, Balb/C mice
Details: mouse, in vivo, po, 100 mg/kg
Description: In this example, the pharmacokinetic parameters and lung tissue distribution of the deuterated compounds YF027, YF032, YF036, and YF044 and their respective non-deuterated control compounds (A, B, C, and D) were determined.
Balb/C mice, male (1 group at each time point, 5 mice per group, 55 mice per compound in total), 7-8 weeks old, weighing about 20 g, animal source: Beijing Vital River Laboratory Animal Technology Co., Ltd.
The test compound was completely dissolved in an 8% Tween-80 aqueous solution. A 10 mg/mL drug liquid was prepared for intraperitoneal injection and intragastric administration.
Single intragastric administration was performed at a dose of 100 mg/kg. The pharmacokinetic differences between the deuterated compounds YF027, YF032, YF036, and YF044 and their respective non-deuterated controls A, B, C, and D were compared.
The mice were fasted overnight before administration. In the experiment, orbital venous blood and lung tissue were collected from the mice at time points of no administration group (0 min) and 10 min, 20 min, 30 min, 1 h, 2 h, 3 h, 4 h, 6 h, 8 h, and 24 h after intragastric administration, and about 300 µL of blood was collected from the eyeballs each time.
The collected blood sample was placed in an anticoagulation tube, and quickly inverted and mixed well. The tube was temporarily placed on ice after being labeled. The blood samples temporarily stored on ice were subjected to low-temperature centrifugation within 1 h at 4 °C at 3000 rpm for 10 min. The supernatant obtained after centrifugation was plasma. The plasma was transferred to a new centrifuge tube and stored in a refrigerator at -80 °C for subsequent detection.
The lung tissues of the mice were collected, washed with pre-cooled normal saline to remove the residual blood and tissue fluid, dried with absorbent paper, weighed with a balance, and placed into a centrifuge tube. The tubes were marked and stored in a refrigerator at -80 °C.
The concentrations of the compounds of the present disclosure and control compounds in plasma and lung tissue were determined using LC-MS/MS. Table 2. Pharmacokinetic parameters of compound YF027 of the present disclosure and control compound A

## Cl.[2H]C1([2H])CCCC([2H])([2H])N1C([2H])([2H])c1c(O)cc(C(C)(C)C)c2oc3c4ccc(O)cc4oc(=O)c3c12 [YF027, 10-(tert-Butyl)-3,8-dihydroxy-7-((piperidin-1-yl-2,2,6,6-d4)methyl-d2)-6H-benzofuran[3,2-c]chromen-6-one hydrochloride]
  AUC0-∞: 380.76 ng·h/mL
  CL: 262.63 L/h/kg
  Cmax: 100.26 ng/mL
  Lung tissue distribution Cmax: 1406.73 ng/g
  Tmax: 0.5 h
  t1/2: 1.83 h
24 h
  AUC0-t: 367.05 ng·h/mL

Source: patent EP4775586A1, “DEUTERATED TETRACYCLIC DERIVATIVE AND USE THEREOF” (priority 2023, dated 2025)
